Where “and” joins values, the source holds several entries; their conditions need not be identical. Equal values may be shown once.

In this assay the target is Serine/threonine-protein kinase pim-2 (Homo sapiens) (UniProt Q9P1W9). In words: PIM2 kinase ligand binding by thermal shift, biophysical, human, melting temperature shift (AID 505). The note with it: Recombinant PIM2 thermal shift, Tm change, at 10 µM, buffer 10 mM HEPES, pH 7.5, with 50 µM L-Arg/L-Glu (1:1), active compounds read high.
Serine/threonine-protein kinase pim-2 (Homo sapiens), sequence (Q9P1W9 whole entry, looked up): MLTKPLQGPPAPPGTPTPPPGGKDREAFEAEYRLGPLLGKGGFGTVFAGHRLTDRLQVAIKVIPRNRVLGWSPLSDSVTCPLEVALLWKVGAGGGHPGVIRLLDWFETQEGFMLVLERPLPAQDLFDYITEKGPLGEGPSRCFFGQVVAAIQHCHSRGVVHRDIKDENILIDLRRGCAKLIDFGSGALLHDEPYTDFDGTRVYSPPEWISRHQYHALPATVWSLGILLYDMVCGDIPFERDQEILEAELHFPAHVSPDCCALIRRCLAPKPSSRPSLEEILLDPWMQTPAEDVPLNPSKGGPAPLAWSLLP

Take `CC(=O)c1cccc(-c2cnc3ccc(NCC4CC4)nn23)c1`: under “NaCl 100 mM”, the Tm shift was 4.29 Celsius.

Turning to `Clc1cccc(Nc2ccn3ncc(-c4ccsc4)c3n2)c1`, the Tm shift (NaCl 100 mM) is 3.45 Celsius.

On to `CCC(CO)Nc1ccc2ncc(-c3cccc(OC(F)(F)F)c3)n2n1` (configuration not stated), for which the Tm shift (NaCl 150 mM) was 5.92 Celsius.

For the molecule `Cc1cc(O)c2c(c1)C(=O)c1cc(O)cc(O)c1C2=O`, the Tm shift (NaCl 150 mM) was 4.2 Celsius.

Turning to `COc1c(C=O)c(O)cc2c1C(=O)c1ccccc1C2=O`, where the note is “NaCl 150 mM”, the Tm shift is 3.3 Celsius.

In the case of `O=C1NCc2c1c1c3ccccc3[nH]c1c1[nH]c3ccccc3c21`, where the note is “NaCl 150 mM”, the Tm shift was 5.2 Celsius.

As for `CCN1/C(=C/C(C)=O)Sc2ccc(OC)cc21`, for the setting “NaCl 150 mM”, the Tm shift was 3.1 Celsius.

Regarding `O=c1oc2cc(O)ccc2c2oc3cc(O)ccc3c12`, the Tm shift (NaCl 150 mM) is 4.4 Celsius.

Consider `CC(C)[C@@H](CO)Nc1ccc2ncc(-c3cccc(Cl)c3)n2n1`, for which, for the setting “NaCl 150 mM”, the Tm shift was 4.69 Celsius.

As for `O=c1cc(-c2ccc(O)c(O)c2)oc2cc(O)cc(O)c12`, under “NaCl 150 mM”, the Tm shift is 4.14 Celsius.

As to `O=Nc1c(-c2c(O)[nH]c3ccc(S(O)(O)O)cc23)[nH]c2ccccc12`, the Tm shift (NaCl 150 mM) was 4.1 Celsius.

With `O=c1cc(-c2ccc(O)cc2)oc2cc(O)cc(O)c12`, the Tm shift (NaCl 150 mM) was 3.8 Celsius.

Take `NCCNc1ncc(C(N)=O)c(Nc2cccc(C(F)(F)F)c2)n1`: where the note is “NaCl 150 mM”, the Tm shift was 5.8 Celsius.

Take `Cc1c2ccncc2c(C)c2c1[nH]c1ccccc12`: the Tm shift (NaCl 150 mM) is 4.8 Celsius.

As to `O=C1NC(=O)c2c1c1c3ccccc3n3c1c1c2c2ccccc2n1[C@@H]1CCC3O1`, the Tm shift (NaCl 100 mM) was 11.1 Celsius.

For `Oc1cc(O)c2c(c1)O[C@H](c1ccc(O)c(O)c1)[C@@H](O)C2`, the Tm shift (NaCl 150 mM) was 3.2 Celsius.

As for `CCC(CO)Nc1ccc2ncc(-c3cccc(C(C)=O)c3)n2n1` (configuration not stated), the Tm shift (NaCl 150 mM) was 4.59 Celsius.

Turning to `O=c1[nH]c(O)c2c1c1c3ccccc3nc1n1cncc21`, the Tm shift (NaCl 150 mM) is 8 Celsius.

In the case of `COC(=O)c1cnc2oc3ccc(O)cc3c2c1-c1ccccc1`, under “NaCl 150 mM”, the Tm shift was 6.25 Celsius.

As to `Cc1c(O)cc(O)c2c1OC(c1ccc(O)c(O)c1)C(=O)C2=O` (configuration not stated), the Tm shift (NaCl 150 mM) is 4.1 Celsius.

As for `Brc1c(Br)c(Br)c2n[nH]nc2c1Br`, the Tm shift (NaCl 150 mM) is 4.25 Celsius.

Regarding `O=c1c(-c2ccc(O)cc2)coc2cc(O)ccc12`, the Tm shift (NaCl 150 mM) is 3.3 Celsius.

Consider `NC1=N/C(=C2/CCNC(=O)c3[nH]c(Br)cc32)C(=O)N1`, for which the Tm shift reads like this: (NaCl 100 mM) 3.73 Celsius; (NaCl 150 mM) 3.7 Celsius.

Take `CC(C)(C)c1nc2c3cc[nH]c(=O)c3c3cc(F)ccc3c2[nH]1`: the Tm shift (NaCl 150 mM) is 5.1 Celsius.

For the molecule `O=c1c(O)c(-c2ccc(O)c(O)c2)oc2cc(O)ccc12`, for the setting “NaCl 150 mM”, the Tm shift is 6.11 Celsius.

On to `N#C/C(=C1\Nc2ccccc2S1)c1ccnc(NCCc2cccnc2)n1`, for which, for the setting “NaCl 150 mM”, the Tm shift was 7.4 Celsius.

Regarding `O=C1Nc2ccccc2/C1=C\c1c(Cl)[nH]c2ccccc12`, the Tm shift (NaCl 150 mM) was 3.4 Celsius.

Take `COc1cc(C2Oc3cc(O)cc(O)c3C(=O)C2=O)ccc1O` (configuration not stated): under “NaCl 150 mM”, the Tm shift is 7.24 Celsius.

On to `Clc1cccc(-c2cnc3ccc(NCCc4ccccn4)nn23)c1`, for which, for the setting “NaCl 100 mM”, the Tm shift was 3.46 Celsius.

For `O=C1C(=O)C(c2ccccc2)Oc2ccc(O)cc21` (configuration not stated), for the setting “NaCl 150 mM”, the Tm shift was 3.1 Celsius.

Regarding `CCn1cnc2c(Nc3cccc(Cl)c3)nc(N[C@@H]3CCCC[C@@H]3N)nc21`, for the setting “NaCl 150 mM”, the Tm shift was 5.45 Celsius.

As for `O=C1NC(=O)c2c1c1c3ccccc3[nH]c1c1[nH]c3cc(Br)ccc3c21`, the Tm shift (NaCl 100 mM) was 6.31 Celsius.

For the molecule `O=c1c(O)c(-c2cc(O)c(O)c(O)c2)oc2cc(O)cc(O)c12`, the Tm shift (NaCl 100 mM) was 4.74 Celsius.

With `CC(C)[C@@H](CO)Nc1ccc2ncc(-c3cccc(OC(F)(F)F)c3)n2n1`, the Tm shift (NaCl 150 mM) was 4.06 Celsius.

With `NCCCn1cc(C2=C(c3c[nH]c4ccccc34)C(=O)NC2=O)c2ccccc21`, under “NaCl 150 mM”, the Tm shift was 5.63 Celsius.

Consider `O=c1c(-c2ccc(O)cc2)coc2cc(O)cc(O)c12`, for which the Tm shift (NaCl 150 mM) was 3.3 Celsius.

In the case of `CCC(CO)Nc1ccc2ncc(-c3ccc(F)c(Cl)c3)n2n1` (configuration not stated), under “NaCl 150 mM”, the Tm shift was 5.54 Celsius.

For `Clc1cccc(-c2cnc3ccc(NC4CCOCC4)nn23)c1`, the Tm shift (NaCl 100 mM) is 5.64 Celsius.

As for `O=C1C(=O)C(c2ccc(O)cc2O)Oc2cc(O)cc(O)c21` (configuration not stated), the Tm shift (NaCl 150 mM) was 6.2 Celsius.

On to `O=c1c(O)c(-c2ccc(O)c(O)c2)oc2cc(O)cc(O)c12`, for which the Tm shift (NaCl 150 mM) was 8.58 Celsius and 7.16 Celsius.

As for `CC1N=C2SC=CN2C(=O)C1CCN1CCC(=C(c2ccccc2)c2ccc(F)cc2)CC1` (configuration not stated), the Tm shift (NaCl 150 mM) was 4.3 Celsius and 3.8 Celsius.

Take `N=C(N)SCCCn1cc(C2=C(c3c[nH]c4ccccc34)C(=O)NC2=O)c2ccccc21`: the Tm shift (NaCl 150 mM) was 5.64 Celsius.

For the molecule `CN(C)CCCn1cc(C2=C(c3c[nH]c4ccccc34)C(=O)NC2=O)c2ccccc21`, the Tm shift reads like this: (NaCl 100 mM) 4.21 Celsius; (NaCl 150 mM) 6.1 Celsius.

For the molecule `CCC(CO)Nc1ccc2ncc(-c3ccc(O)cc3)n2n1` (configuration not stated), the Tm shift (NaCl 150 mM) was 4.74 Celsius.

In the case of `Fc1cccc(-c2cnc3ccc(NC4CCOCC4)nn23)c1`, the Tm shift (NaCl 150 mM) is 3.17 Celsius.

In the case of `COc1cc(/C=C/C(=O)CC(=O)/C=C/c2ccc(O)c(OC)c2)ccc1O`, the Tm shift (NaCl 150 mM) is 4.3 Celsius.

With `O=C1NC(=O)C(c2c[nH]c3ccccc23)=C1c1c[nH]c2ccccc12`, the Tm shift (NaCl 150 mM) was 4.02 Celsius.

As for `Cn1cc(C2=C(c3c4n(c5ccccc35)CCC(CN)C4)C(=O)NC2=O)c2ccccc21` (configuration not stated), the Tm shift (NaCl 150 mM) was 3.6 Celsius.

Consider `O=C1C(=O)C(c2cc(O)c(O)c(O)c2)Oc2cc(O)cc(O)c21` (configuration not stated), for which, where the note is “NaCl 100 mM”, the Tm shift was 4.13 Celsius.

With `O=c1c(O)c(-c2ccc(O)cc2)oc2cc(O)cc(O)c12`, the Tm shift (NaCl 150 mM) was 5.81 Celsius.

Turning to `CCC(CO)Nc1ccc2ncc(-c3ccc(C(=O)O)cc3)n2n1` (configuration not stated), the Tm shift (NaCl 150 mM) was 4.94 Celsius.

As to `O=C1C(=O)C(c2cccc(O)c2)Oc2ccccc21` (configuration not stated), where the note is “NaCl 150 mM”, the Tm shift was 4.5 Celsius.

Take `O=C1c2ccccc2-c2n[nH]c3cccc1c23`: the Tm shift (NaCl 150 mM) was 4.6 Celsius.

`FC(F)(F)Oc1cccc(-c2cnc3ccc(NC4CCOCC4)nn23)c1`: where the note is “NaCl 150 mM”, the Tm shift is 5.78 Celsius.

For the molecule `O=C1Nc2ccc(I)cc2/C1=C/c1cc(Br)c(O)c(Br)c1`, the Tm shift (NaCl 150 mM) is 10.2 Celsius.

For the molecule `Fc1ccc(CNc2ccc3ncc(-c4ccco4)n3n2)cc1`, where the note is “NaCl 100 mM”, the Tm shift is 3.36 Celsius.

Regarding `CC(=O)c1cccc(-c2cnc3ccc(N[C@H](CO)C(C)C)nn23)c1`, the Tm shift (NaCl 150 mM) is 3.77 Celsius.

On to `CC(C)[C@@H](CO)Nc1ccc2ncc(-c3cccc(C(F)(F)F)c3)n2n1`, for which the Tm shift (NaCl 150 mM) is 4.39 Celsius.

As for `O=C1C(=O)C(c2ccc(O)cc2)Oc2cc(O)cc(O)c21` (configuration not stated), the Tm shift (NaCl 150 mM) was 5.62 Celsius.

`CC(O)(O)C1(O)C[C@@H]2O[C@@]1(C)n1c3ccccc3c3c4c(c5c6ccccc6n2c5c31)C(=O)NC4` (some centres not stated): where the note is “NaCl 150 mM”, the Tm shift was 3.79 Celsius.
